Reference: US20170166555A1, “FUNCTIONALISED AND SUBSTITUTED INDOLES AS ANTI-CANCER AGENTS” (Novogen Limited, priority 2013, published 2017)
Like-named read-outs stand apart in the source and are kept apart here.

How the values were obtained:
Experiment in all cases: Anti-proliferative assay, cell-titre luminescent reagent, 72 h (GVK-BIO)
Type in all cases: cell-based
[1] = system: A549 non-small cell lung carcinoma cells; conditions: read-out: IC50/μM Lung (NSLC) A549
Summary of the method: (§1)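 Cells were plated at predetermined densities in ATCC-recommended medium and allowed to attach for 24 h at 37 °C, 5% CO2 before dosing. The compound series was tested either at 30, 3, 0.3 and 0.03 μM with IC50 from linear regression of semi-log percent-of-control plots, or at 30, 10, 3, 1, 0.3 and 0.1 μM with EC50 from variable-slope sigmoidal nonlinear fits.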

[2] = system: CaCo2 colorectal cancer cells
Summary of the method: as §1

[3] = system: PC3 prostate cancer cells
Summary of the method: as §1

[4] = system: DU145 prostate cancer cells
Summary of the method: as §1

SK-Mel-28 melanoma cells = system: SK-Mel-28 melanoma cells
Summary of the method: as §1

[5] = system: MDA-MB-231 triple negative breast cancer cells
Summary of the method: as §1

[6] = system: SK-N-SH neuroblastoma cells
Summary of the method: as §1

[7] = Homo sapiens, A549, 72 h, 30, 3, 0.3 and 0.03 μM, linear regression (Tables 2-4)
[8] = Homo sapiens, Caco-2, 72 h, 30, 3, 0.3 and 0.03 μM, linear regression (Tables 2-4)
[9] = 30, 3, 0.3 and 0.03 μM, linear regression (Tables 2-4)
[10] = Homo sapiens, DU-145, 72 h, 30, 3, 0.3 and 0.03 μM, linear regression (Tables 2-4)
[11] = Homo sapiens, SK-MEL-28, 72 h, 30, 3, 0.3 and 0.03 μM, linear regression (Tables 2-4)
[12] = Homo sapiens, MDA-MB-231, 72 h, 30, 3, 0.3 and 0.03 μM, linear regression (Tables 2-4)
[13] = Homo sapiens, SK-N-SH, 30, 3, 0.3 and 0.03 μM, linear regression (Tables 2-4)

| Compound | IC50 ([1]; Homo sapiens, A549, 72 h, 30, 10, 3, 1, 0.3 and 0.1 μM, nonlinear regression (Table 5)) | IC50 ([2]; Homo sapiens, Caco-2, 72 h, 30, 10, 3, 1, 0.3 and 0.1 μM, nonlinear regression (Table 5)) | IC50 ([3]; 30, 10, 3, 1, 0.3 and 0.1 μM, nonlinear regression (Table 5)) | IC50 ([4]; Homo sapiens, DU-145, 72 h, 30, 10, 3, 1, 0.3 and 0.1 μM, nonlinear regression (Table 5)) | IC50 (SK-Mel-28 melanoma cells; Homo sapiens, SK-MEL-28, 72 h, 30, 10, 3, 1, 0.3 and 0.1 μM, nonlinear regression (Table 5)) | IC50 ([5]; Homo sapiens, MDA-MB-231, 72 h, 30, 10, 3, 1, 0.3 and 0.1 μM, nonlinear regression (Table 5)) | IC50 ([6]; Homo sapiens, SK-N-SH, 30, 10, 3, 1, 0.3 and 0.1 μM, nonlinear regression (Table 5)) | IC50 [1, 7] | IC50 [2, 8] | IC50 [3, 9] | IC50 [4, 10] | IC50 (SK-Mel-28 melanoma cells; [11]) | IC50 [5, 12] | IC50 [6, 13] | IC50 [1, 9] | IC50 [2, 9] | IC50 [4, 9] | IC50 (SK-Mel-28 melanoma cells; [9]) | IC50 [5, 9] | IC50 [6, 9] |
| --- | --- | --- | --- | --- | --- | --- | --- | --- | --- | --- | --- | --- | --- | --- | --- | --- | --- | --- | --- | --- |
| COc1ccc(NC(=O)c2ccc(Oc3ccc4c(c3)c(C)c(C)n4CCCN(C)C)cc2)cc1 [Compound 4094, 4-((1-(3-(dimethylamino)propyl)-2,3-dimethyl-1H-indol-5-yl)oxy)-N-(4-methoxyphenyl)benzamide] | 2.7 µM | 4.2 µM | 1.5 µM | 2 µM | 3.8 µM | 1.7 µM | 1.8 µM | – | – | – | – | – | – | – | – | – | – | – | – | – |
| Cc1c(C)n(CCCN(C)C)c2ccc(Oc3ccc(C(=O)Nc4ccc5c(c4)OCO5)cc3)cc12 [Compound 4095, N-(benzo[d][1,3]dioxol-5-yl)-4-((1-(3-(dimethylamino)propyl)-2,3-dimethyl-1H-indol-5-yl)oxy)benzamide] | – | – | – | – | – | – | – | 1 µM | 2.3 µM | 1.4 µM | 1.2 µM | 2.3 µM | 1.6 µM | 1.5 µM | – | – | – | – | – | – |
| Cc1c(C)n(CCCN(C)C)c2ccc(Oc3ccc(C(=O)Nc4cccc(F)c4)cc3)cc12 [Compound 4096, 4-((1-(3-(dimethylamino)propyl)-2,3-dimethyl-1H-indol-5-yl)oxy)-N-(3-fluorophenyl)benzamide] | – | – | – | – | – | – | – | 2.9 µM | 2.7 µM | 2.5 µM | 3.3 µM | 3.5 µM | 2.6 µM | 3.7 µM | – | – | – | – | – | – |
| COc1cccc(NC(=O)c2ccc(Oc3ccc4c(c3)c(C)c(C)n4CCCN(C)C)cc2)c1 [Compound 4097, 4-((1-(3-(dimethylamino)propyl)-2,3-dimethyl-1H-indol-5-yl)oxy)-N-(3-methoxyphenyl)benzamide] | – | – | – | – | – | – | – | 3 µM | 3.5 µM | 4.9 µM | 3.5 µM | 3.6 µM | 2.5 µM | 2.9 µM | – | – | – | – | – | – |

The next lines start with the values.

| IC50 ([1]; Homo sapiens, A549, 72 h, 30, 10, 3, 1, 0.3 and 0.1 μM, nonlinear regression (Table 5)) | IC50 ([2]; Homo sapiens, Caco-2, 72 h, 30, 10, 3, 1, 0.3 and 0.1 μM, nonlinear regression (Table 5)) | IC50 ([3]; 30, 10, 3, 1, 0.3 and 0.1 μM, nonlinear regression (Table 5)) | IC50 ([4]; Homo sapiens, DU-145, 72 h, 30, 10, 3, 1, 0.3 and 0.1 μM, nonlinear regression (Table 5)) | IC50 (SK-Mel-28 melanoma cells; Homo sapiens, SK-MEL-28, 72 h, 30, 10, 3, 1, 0.3 and 0.1 μM, nonlinear regression (Table 5)) | IC50 ([5]; Homo sapiens, MDA-MB-231, 72 h, 30, 10, 3, 1, 0.3 and 0.1 μM, nonlinear regression (Table 5)) | IC50 ([6]; Homo sapiens, SK-N-SH, 30, 10, 3, 1, 0.3 and 0.1 μM, nonlinear regression (Table 5)) | IC50 [1, 7] | IC50 [2, 8] | IC50 [3, 9] | IC50 [4, 10] | IC50 (SK-Mel-28 melanoma cells; [11]) | IC50 [5, 12] | IC50 [6, 13] | IC50 [1, 9] | IC50 [2, 9] | IC50 [4, 9] | IC50 (SK-Mel-28 melanoma cells; [9]) | IC50 [5, 9] | IC50 [6, 9] | Compound |
| --- | --- | --- | --- | --- | --- | --- | --- | --- | --- | --- | --- | --- | --- | --- | --- | --- | --- | --- | --- | --- |
| – | – | – | – | – | – | – | 2.9 µM | 4 µM | 3.3 µM | 3.4 µM | 3.8 µM | 3.7 µM | 3.4 µM | – | – | – | – | – | – | Cc1c(C)n(CCCN(C)C)c2ccc(Oc3ccc(C(=O)Nc4ccccc4)cc3)cc12 [Compound 4098, 4-((1-(3-(dimethylamino)propyl)-2,3-dimethyl-1H-indol-5-yl)oxy)-N-phenylbenzamide] |
| – | – | – | – | – | – | – | – | – | 4.9 µM | – | – | – | – | 4.1 µM | > 30 µM | 5.5 µM | 3.7 µM | 3.4 µM | 3.9 µM | CN(C)CCCn1ccc2cc(Nc3cccc(C(=O)Nc4ccc(F)cc4)c3)ccc21 [Compound 4099, 3-((1-(3-(dimethylamino)propyl)-1H-indol-5-yl)amino)-N-(4-fluorophenyl)benzamide] |
| – | – | – | – | – | – | – | 4.5 µM | > 30 µM | > 30 µM | > 30 µM | 2.5 µM | 5.2 µM | 3.6 µM | – | – | – | – | – | – | COc1ccc(NC(=O)c2ccc(Nc3ccc4c(ccn4CCCN(C)C)c3)cc2)cc1 [Compound 4100, 4-((1-(3-(dimethylamino)propyl)-1H-indol-5-yl)amino)-N-(4-methoxyphenyl)benzamide] |
| – | – | – | – | – | – | – | 4 µM | > 30 µM | 7.8 µM | 5.2 µM | 3.3 µM | 3.9 µM | 3.4 µM | – | – | – | – | – | – | CN(C)CCCn1ccc2cc(Nc3ccc(C(=O)Nc4ccc5c(c4)OCO5)cc3)ccc21 [Compound 4101, N-(benzo[d][1,3]dioxol-5-yl)-4-((1-(3-(dimethylamino)propyl)-1H-indol-5-yl)amino)benzamide] |
| – | – | – | – | – | – | – | 4 µM | > 30 µM | 5.5 µM | 6 µM | 3.5 µM | 3.6 µM | 3.5 µM | – | – | – | – | – | – | CN(C)CCCn1ccc2cc(Nc3ccc(C(=O)Nc4cccc(F)c4)cc3)ccc21 [Compound 4102, 4-((1-(3-(dimethylamino)propyl)-1H-indol-5-yl)amino)-N-(3-fluorophenyl)benzamide] |
